According to ChEMBL document CHEMBL1147845, “Rapid synthesis of sulfone derivatives as potential anti-infectious agents” (2007):
In brackets after ≈: the same amount, converted by molar mass. Activity calls are given as the source filed them. The rule behind the calls is not given here.

Columns and labels:
[1] = test system: Staphylococcus aureus; experiment: Antimicrobial activity against Staphylococcus aureus ATCC 6538 by broth microdilution method; format: functional
[2] = test system: Candida tropicalis; experiment: Antimicrobial activity against Candida tropicalis IP 2031 by broth microdilution method; format: functional
[3] = test system: Escherichia coli; experiment: Antimicrobial activity against Escherichia coli ATCC 10536 by disk diffusion method; format: functional
[4] = test system: Pseudomonas aeruginosa; experiment: Antimicrobial activity against Pseudomonas aeruginosa ATCC 15442 by disk diffusion method; format: functional, organism-based
[5] = test system: Staphylococcus aureus; experiment: Antimicrobial activity against Staphylococcus aureus ATCC 6538 by disk diffusion method; format: functional
[6] = test system: Enterococcus hirae; experiment: Antimicrobial activity against Enterococcus hirae ATCC 10541 by disk diffusion method; format: functional, organism-based
[7] = test system: Candida albicans; experiment: Antimicrobial activity against Candida albicans ATCC 90029 by disk diffusion method; format: functional, organism-based
[8] = test system: Candida tropicalis; experiment: Antimicrobial activity against Candida tropicalis IP 2031 by disk diffusion method; format: functional
[9] = test system: Escherichia coli; experiment: Antimicrobial activity against Escherichia coli ATCC 10536 at 10 ug by disk diffusion method; format: functional, organism-based
[10] = test system: Pseudomonas aeruginosa; experiment: Antimicrobial activity against Pseudomonas aeruginosa ATCC 15442 at 10 ug by disk diffusion method; format: functional, organism-based
[11] = test system: Staphylococcus aureus; experiment: Antimicrobial activity against Staphylococcus aureus ATCC 6538 at 10 ug by disk diffusion method; format: functional; details: read-out: IZ
[12] = test system: Enterococcus hirae; experiment: Antimicrobial activity against Enterococcus hirae ATCC 10541 at 10 ug by disk diffusion method; format: functional, organism-based
[13] = test system: Candida albicans; experiment: Antimicrobial activity against Candida albicans ATCC 90029 at 10 ug by disk diffusion method; format: functional, organism-based
[14] = test system: Candida tropicalis; experiment: Antimicrobial activity against Candida tropicalis IP 2031 at 10 ug by disk diffusion method; format: functional, organism-based
[15] = test system: Escherichia coli; experiment: Antimicrobial activity against Escherichia coli ATCC 10536 at 20 ug by disk diffusion method; format: functional, organism-based
[16] = test system: Pseudomonas aeruginosa; experiment: Antimicrobial activity against Pseudomonas aeruginosa ATCC 15442 at 20 ug by disk diffusion method; format: functional, organism-based
[17] = test system: Staphylococcus aureus; experiment: Antimicrobial activity against Staphylococcus aureus ATCC 6538 at 20 ug by disk diffusion method; format: functional, organism-based
[18] = test system: Enterococcus hirae; experiment: Antimicrobial activity against Enterococcus hirae ATCC 10541 at 20 ug by disk diffusion method; format: functional, organism-based
[19] = test system: Candida albicans; experiment: Antimicrobial activity against Candida albicans ATCC 90029 at 20 ug by disk diffusion method; format: functional; details: read-out: IZ
[20] = test system: Candida tropicalis; experiment: Antimicrobial activity against Candida tropicalis IP 2031 at 20 ug by disk diffusion method; format: functional; details: read-out: IZ
[21] = test system: Escherichia coli; experiment: Antimicrobial activity against Escherichia coli ATCC 10536 at 30 ug by disk diffusion method; format: functional; details: read-out: IZ
[22] = test system: Pseudomonas aeruginosa; experiment: Antimicrobial activity against Pseudomonas aeruginosa ATCC 15442 at 30 ug by disk diffusion method; format: functional, organism-based
[23] = test system: Staphylococcus aureus; experiment: Antimicrobial activity against Staphylococcus aureus ATCC 6538 at 30 ug by disk diffusion method; format: functional, organism-based
[24] = test system: Enterococcus hirae; experiment: Antimicrobial activity against Enterococcus hirae ATCC 10541 at 30 ug by disk diffusion method; format: functional, organism-based
[25] = test system: Candida albicans; experiment: Antimicrobial activity against Candida albicans ATCC 90029 at 30 ug by disk diffusion method; format: functional, organism-based
[26] = test system: Candida tropicalis; experiment: Antimicrobial activity against Candida tropicalis IP 2031 at 30 ug by disk diffusion method; format: functional, organism-based

SMILES	MIC [1] [µg/mL]	MIC [2] [µg/mL]	Activity [3]	Activity [4]	inhibition zone (IZ) [5] [mm]	Activity [6]	Activity [7]	inhibition zone (IZ) [8] [mm]	further results
O=C(CS(=O)(=O)c1ccc(Cl)cc1)c1ccc([N+](=O)[O-])cc1	100 (≈ 294 µM)	100 (≈ 294 µM)	inactive	inactive	24	inactive	inactive	19	
CN[C@@H]1[C@H](O[C@H]2[C@H](O[C@H]3[C@H](O)[C@@H](O)[C@H](N=C(N)N)[C@@H](O)[C@@H]3N=C(N)N)O[C@@H](C)[C@]2(O)C=O)O[C@@H](CO)[C@H](O)[C@H]1O [STREPTOMYCIN]									Activity [9]: inactive; Activity [10]: inactive; zone of inhibition at 10 µg/disc [11]: 27 mm; Activity [12]: inactive; Activity [13]: inactive; Activity [14]: inactive
O=C(CS(=O)(=O)c1ccc(F)cc1)c1ccc([N+](=O)[O-])cc1	> 100	> 100	inactive	inactive	25	inactive	inactive	19	
OC(Cn1cncn1)(Cn1cncn1)c1ccc(F)cc1F [FLUCONAZOLE]									Activity [15]: inactive; Activity [16]: inactive; Activity [17]: inactive; Activity [18]: inactive; zone of inhibition at 20 µg/disc [19]: 18 mm; zone of inhibition at 20 µg/disc [20]: 21 mm
O=C(CS(=O)(=O)c1ccc([N+](=O)[O-])cc1)c1ccc([N+](=O)[O-])cc1	100 (≈ 285 µM)	100 (≈ 285 µM)	inactive	inactive	28	inactive	inactive	12	
O=C(N[C@H](CO)[C@H](O)c1ccc([N+](=O)[O-])cc1)C(Cl)Cl [CHLORAMPHENICOL]									zone of inhibition at 30 µg/disc [21]: 34 mm; Activity [22]: inactive; Activity [23]: inactive; Activity [24]: inactive; Activity [25]: inactive; Activity [26]: inactive
O=C(CS(=O)(=O)c1cccc2ccccc12)c1ccc([N+](=O)[O-])cc1	> 100	> 100	inactive	inactive	10	inactive	inactive	12	
Cc1ccc(S(=O)(=O)CC(=O)c2ccc([N+](=O)[O-])cc2)cc1	> 100	> 100		inactive	11	inactive	inactive	22	inhibition zone (IZ) [3]: 12 mm
O=C(c1ccc([N+](=O)[O-])cc1)C(Cc1ccccc1)S(=O)(=O)c1ccccc1 (centres undefined)			inactive	inactive		inactive	inactive		Activity [5]: inactive; Activity [8]: inactive
Nc1ccc(S(=O)(=O)c2ccc(N)cc2)cc1 [DAPSONE]	> 100	> 100							
O=C(CS(=O)(=O)c1ccc(I)cc1)c1ccc([N+](=O)[O-])cc1	> 100	> 100	inactive	inactive	11	inactive	inactive		Activity [8]: inactive
